Measured values from patent US7851590B2, “Y2 selective receptor agonists for therapeutic interventions” (7TM Pharma A/S, priority 2005, dated 2010).

How the values were obtained:
[1] = molecular target: T1, rhesus monkey Y2 receptor (Macaca mulatta, UniProt Q9GK74); assay: Rhesus monkey Y2 receptor affinity assay (competition binding with human 125I-PYY); design: The coding region of the rhesus monkey NPY-Receptors (Y1, Y2, Y4) were sub-cloned into the pcDNA3.1/Zeo vector; expressed in transfected cells; host or cells: CHO cells, stably transfected; conditions: CHO cells stably transfected with the rhesus monkey Y2 receptor; 12 pM human 125I-PYY, 3 hours at 4 C; read-out: Competition binding w 126I-PYY at Y2 (Ki)
T1 sequence (Q9GK74 1-381): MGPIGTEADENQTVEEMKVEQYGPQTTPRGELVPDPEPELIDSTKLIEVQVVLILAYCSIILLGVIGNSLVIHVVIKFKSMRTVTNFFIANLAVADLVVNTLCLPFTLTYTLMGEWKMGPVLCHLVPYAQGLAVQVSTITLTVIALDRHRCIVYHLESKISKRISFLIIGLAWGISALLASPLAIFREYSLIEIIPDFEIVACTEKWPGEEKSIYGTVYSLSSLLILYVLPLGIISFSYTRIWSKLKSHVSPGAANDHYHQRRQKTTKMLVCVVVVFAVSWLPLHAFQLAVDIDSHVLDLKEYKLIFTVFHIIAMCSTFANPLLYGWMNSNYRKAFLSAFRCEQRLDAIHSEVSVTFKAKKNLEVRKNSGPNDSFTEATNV
Experimental: The stable transfected CHO cells are transferred to 48-well culture plates one day prior assay at a density of 2,500 cells per well aiming at 5-8% binding of the radioactive ligand. […] Cells are washed twice in 0.5 ml of ice-cold buffer and 0.5-1 ml of lysis buffer (8 M Urea, 2% NP40 in 3 M acetic acid) is added and the bound radioactivity is counted in a gamma counter. Determinations are made in triplicates.

[2] = molecular target: T1, rhesus monkey Y2 receptor; assay: Rhesus monkey Y2 receptor potency assay (phosphatidylinositol turnover, Gqi5); type: cell-based; design: The coding region of the rhesus monkey NPY-Receptors (Y1, Y2, Y4) were sub-cloned into the pcDNA3.1/Zeo vector; expressed in transfected cells; host or cells: COS-7 cells, transiently transfected; conditions: COS-7 cells transiently transfected with rhesus monkey Y2 receptor and Gqi5; μM; read-out: IP3 EC50 values at Y2
Experimental: Determinations are made in duplicates. EC50 values were calculated using a standard pharmacological data handling software, Prism 3.0 (graphPad Sofware, San Diego, USA).

Ki [1]: > 1 µM | EC50 [2]: > 1 µM
Structure (SMILES): CC[C@H](C)[C@H](NC(=O)[C@H](Cc1ccc(O)cc1)NC(=O)[C@H](CCCNC(=N)N)NC(=O)[C@H](CCCNC(=N)N)NC(=O)[C@H](CC(C)C)NC(=O)[C@H](CC(=O)O)NC(=O)[C@H](C)NC(=O)[C@H](C)NC(=O)[C@H](Cc1ccc(O)cc1)NC(=O)[C@H](CCC(N)=O)NC(=O)[C@H](C)NC(=O)[C@H](CCSC)NC(=O)[C@H](CCC(N)=O)NC(=O)[C@H](CCC(=O)O)NC(=O)[C@@H]1CCCN1C(=O)[C@@H](NC(=O)[C@H](C)NC(=O)[C@H](CC(N)=O)NC(=O)[C@H](CC(=O)O)NC(=O)CNC(=O)[C@@H]1CCCN1C(=O)[C@H](Cc1ccc(O)cc1)NC(=O)[C@@H](NC(=O)[C@@H]1CCCN1C(=O)[C@H](CCC(=O)O)NC(=O)[C@H](CC(C)C)NC(=O)[C@@H]1CCCN1C(=O)[C@H](C)N)C(C)C)[C@@H](C)O)C(=O)N[C@@H](CC(N)=O)C(=O)N[C@@H](CCSC)C(=O)N[C@@H](CC(C)C)C(=O)N[C@H](C(=O)N[C@@H](CCCNC(=N)N)C(=O)N1CCC[C@H]1C(=O)N[C@@H](CCCNC(=N)N)C(=O)N[C@@H](Cc1ccc(O)cc1)C(N)=O)[C@@H](C)O [PP, Pancreatic Polypeptide]
